# Like-named read-outs stand apart in the source and are kept apart here.
# Experiments:
# [1] = tested on: HepG2 cells; test: Cell survival, MTT assay; format: cell-based, human
# Protocol: To study the effect of the compound on cell viability we used 1.25×10^5 HepG2 cells in 96-well culture plates, followed by incubation with media only, media+0.1% DMSO or Media+5 uM of 31/33/34/35 in 0.1% DMSO or with increasing concentration (0.2-50 μM) of 34 in 0.1% DMSO for 40 hours followed by a viability assay knows as MTT. The MTT assay is a colorimetric assay for assessing cell metabolic activity. NAD(P)H-dependent cellular oxidoreductase enzymes may, reflects the number of viable cells present. These enzymes are capable of reducing the tetrazolium dye MTT 3-(4,5-dimethylthiazol-2-yl)-2,5-diphenyltetrazolium bromide to its insoluble formazan, which has a purple color. Tetrazolium dye assays (commonalty known as the MTT assay) is used to measure cytotoxicity (loss of viable cells).
# [2] = target: recombinant PCSK9 (Homo sapiens, UniProt Q8NBP7); test: PCSK9 detection interference (ELISA); conditions: FIG. 5A
# Protocol: To study whether 34 directly interfere with PCSK9 detection we used recombinant PCSK9 (30 ng/ml) was mixed with increasing concentration (0.2-50 μM) of 34 in 0.1% DMSO followed by detection of PCSK9 using commercially available ELISA kit (MBL-international, catalog # CY-8079) following the manufacturer instruction.
# [3] = tested on: 4000 most abundant proteins in HepG2 cells; test: Shotgun proteomics of HepG2 cells; format: cell-based, human; conditions: 5 μM, FIGS. 8A-8B
# Protocol: To study whether 34 affect total protein levels in hepG2 in an unbiased analysis we used 1×10^6 HepG2 cells in 6-well culture plates, followed by incubation with media+0.1% DMSO or DMSO or with increasing concentration (2.5-10 μM) of 34 in 0.1% DMSO for 24 hours. After 24 hours media was aspirated, cells were washed with HBSS followed by shotgun proteomics analysis of the most abundant ˜4000 cellular proteins. Spectral count for each protein was compared between untreated (0.1% DMSO) to treated (34 at 5 μM) samples.
# [4] = tested on: HepG2 cells; test: LDL-cholesterol uptake in HepG2 cells (3H-cholesterol); format: cell-based, human; conditions: 10 uM for 24 hours, FIG. 16
# Protocol: To determine whether Compound 34 increases LDL-cholesterol uptake, LDL was isolated from human plasma using ultracentrifugation and the cholesterol content of the particle was radiolabeled with 3H-cholesterol. Hepatoma cells (HepG2) were cultured (0.25×10^6 cell/well in a 24-well plate) with or without 10 uM of B004 (compound 34) for 24 hours in DMEM. Radiolabeled LDL-cholesterol (LDL-c) was added to the cells for 4 hours. Cells were washed 3 times with PBS and left to air dry. 500 μl of isopropanol was added to each well and incubate with shaking at room temperature for 3 hours in a sealed container. 50 μl of the isopropanol was placed into a scintillation vial together with 4.5 ml of scintillation liquid cocktail (Scintiverse BD). 3H-cholesterol levels were read using a beta emission radioactive counter.
# [5] = tested on: AST; set-up: species or system mice; conditions: mouse, in vivo, po
# Protocol: 1) Single-dose experiments: mice were administered (oral gavage or intra-peritoneal injection) with 200 μl of 34 (30 mg/kg or 100 mg/kg) in 0.1% Tween 80+1% hydroxyethyl cellulose (HEC) in buffered (PBS pH7.4) solution. After 34 administration, 50-70 μl of blood was collected from the retro-orbital plexus every 4-6 hours (for a total of 24 hours). Blood was left to clot at room temperature for 20 min, followed by serum separation (spin at 1000 g for 10 min). Serum was analyzed as specified in the “Serum analyses” section. 2) Daily dosage experiments: mice were administered daily oral gavage with 200 μl of 34 (100 mg/kg) in 0.1% Tween80+1% hydroxyethyl cellulose (HEC) in buffered (PBS pH7.4) solution. 50-70 μl of blood was collected from the retro-orbital plexus on day 3 and day 5 after 34 administration, on day 5 mice were euthanized and liver were collected and analyzed as mentioned below under the “Liver analyses” section. Blood was left to clot at room temperature for 20 min, followed by serum separation (spin at 1000 g for 10 min). Serum was analyzed as described below: AST activity—using commercially available activity assay (SIGMA-ALDRICH, catalog # MAK055) following the manufacturer instruction.
# [6] = tested on: apoE mRNA; test: apoE transcription, HepG2 (real-time PCR); format: cell-based, human; conditions: HepG2, FIG. 7B
# Text: , cells were washed with HBSS followed by RNA extraction kit (RNeasy, QIAGEN cat #74-104). mRNA was reversed transcribed to cDNA using commercially available kit (ThermoFisher, cat #4368814) and analyzed using real-time PCR for apoE transcript levels using the relative expression method known as delta-delta CT.
# [7] = tested on: apoE; test: apoE secretion, HepG2 (ELISA); format: cell-based, human; conditions: HepG2, FIG. 7A
# Protocol: The collected media was analyzed for apoE levels using commercially available ELISA kit (ABCAM, catalog #108813) following the manufacturer instruction.
# [8] = tested on: PCSK9 mRNA; test: PCSK9 transcription in HepG2 cells (real-time PCR); format: cell-based, human; conditions: FIG. 1B
# Protocol: To study whether 34 affect PCSK9 mRNA levels we used 1×10^6 HepG2 cells in 6-well culture plates, followed by incubation with media+0.1% DMSO or increasing concentration (0.2-50 μM) of 34 in 0.1% DMSO for 24 hours. After 24 hours media was aspirated, cells were washed with HBSS followed by RNA extraction kit (RNeasy, QIAGEN cat #74-104). mRNA was reversed transcribed to cDNA using commercially available kit (ThermoFisher, cat #4368814) and analyzed using real-time PCR for PCSK9 transcript levels using the relative expression method known as delta-delta CT.
# [9] = target: T1, PCSK9 binding to LDLR (EGF-A domain) (Homo sapiens, UniProt Q8NBP7); test: PCSK9-LDLR interaction ELISA; conditions: FIG. 5B
# T1 construct: purchased MBL-international CY-8150
# Protocol: To study whether increasing concentrations of 34 (0.2-50 μM) directly interfere with PCSK9-LDLR interaction we used a commercially available ELISA kit (MBL-international, catalog # CY-8150) following the manufacturer instruction.
# T1 sequence (Q8NBP7 153-692): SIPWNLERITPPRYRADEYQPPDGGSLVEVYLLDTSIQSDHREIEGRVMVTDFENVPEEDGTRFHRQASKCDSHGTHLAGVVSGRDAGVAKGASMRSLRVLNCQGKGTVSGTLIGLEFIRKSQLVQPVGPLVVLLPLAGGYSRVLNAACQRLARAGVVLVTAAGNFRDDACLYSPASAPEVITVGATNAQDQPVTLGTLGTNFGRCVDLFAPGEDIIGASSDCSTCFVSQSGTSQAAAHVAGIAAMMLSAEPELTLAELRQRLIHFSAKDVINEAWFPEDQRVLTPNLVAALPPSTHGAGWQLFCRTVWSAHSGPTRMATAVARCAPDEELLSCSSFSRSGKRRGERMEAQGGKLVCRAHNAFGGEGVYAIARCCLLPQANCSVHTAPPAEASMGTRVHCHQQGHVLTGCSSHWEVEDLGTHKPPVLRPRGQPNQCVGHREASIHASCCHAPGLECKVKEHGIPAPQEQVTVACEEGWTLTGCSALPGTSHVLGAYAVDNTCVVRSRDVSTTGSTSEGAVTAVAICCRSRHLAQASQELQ
# T1 sequence (Q8NBP7 31-152 partner limits assumed): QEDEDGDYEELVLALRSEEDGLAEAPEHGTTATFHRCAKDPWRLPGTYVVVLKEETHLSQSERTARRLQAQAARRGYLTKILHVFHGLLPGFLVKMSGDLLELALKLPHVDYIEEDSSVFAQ
# recombinant PCSK9, sequence (Q8NBP7 153-692): as the sequence (Q8NBP7 153-692) above
smiles,measurement,setting,value
CC(=O)Oc1ccc(C2CC3(CCCCC3)c3c2[nH]c2ccccc32)cc1 (centres unmarked) [Compound 34],cell death,"[1]; 20 μM and 50 μM, HepG2, FIG. 4B",increased cell death
same,HepG2 cell survival (MTT),"[1]; concentrations up to 5 μM, FIGS. 4A-4B",does not affect HepG2 cell survival at concentrations up to 5 μM
same,interference with PCSK9 detection,[2],does not interfere with PCSK9 detection
same,levels of the 4000 most abundant proteins,[3],does not affect the levels of the 4000 most abundant proteins in HepG2 cells
same,LDL-cholesterol uptake,[4],increases LDL-cholesterol uptake in HepG2 cells
same,liver function (measured as AST activity),[5]; 100 mg/kg,not affected
same,liver function (measured as AST activity),[5]; 100 mg/kg/day,not affected
same,apoE mRNA levels,[6],"no changes in secreted, intracellular, or mRNA levels of apoE"
same,secreted apoE levels,[7],"no changes in secreted, intracellular, or mRNA levels of apoE"
same,PCSK9 mRNA levels,[8],reduces levels of PCSK9 mRNA in a dose-dependent manner
same,PCSK9 binding to LDLR (EGF-A domain),[9],does not affect PCSK9 binding to LDLR (EGF-A domain)

# From US11633379B2, “Methods of inhibiting PCSK9” (TRUSTEES OF DARTMOUTH COLLEGE, priority 2017, dated 2023)
